In patent US9238656B2, “Imidazo[4,5-b]pyridine derivatives as ALK and JAK modulators for the treatment of proliferative disorders” (priority 2012, dated 2016) one finds melting point and IC50 data, which are given here for 21 compounds.

Data set [1] concerns the target baculovirus-expressed JAK2 kinase (Homo sapiens, UniProt O60674). Briefly: biochemical. To be noted: 0.2 μM ATP; read-out: JAK2 Potency. In a few lines:
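IC50 derived by variable-slope sigmoidal fit of percent inhibition against log compound concentration. Baculovirus-expressed JAK2 (15 ng/mL) phosphorylated a plate-bound biotinylated 15-mer peptide for 20 min at room temperature; detection by time-resolved fluorescence.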

Data set [2] addresses baculovirus-expressed ALK (Homo sapiens, UniProt Q9UM73). Briefly: ALK kinase inhibition, TRF/ELISA. In kind it is biochemical. Conditions: read-out: ALK Potency. Put shortly: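 Eu-PT66 anti-phosphotyrosine TRF read-out measured phosphorylation of plate-bound GST-PLC-γ (coated at 10 μg/mL). The phosphorylation was driven by 30 ng/mL ALK for 15 minutes at 37° C.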
(An ELISA detects its analyte on a solid surface through an enzyme-linked reagent.)

SMILES strings stand for the structures.

Sequence of baculovirus-expressed JAK2 kinase (O60674 whole entry): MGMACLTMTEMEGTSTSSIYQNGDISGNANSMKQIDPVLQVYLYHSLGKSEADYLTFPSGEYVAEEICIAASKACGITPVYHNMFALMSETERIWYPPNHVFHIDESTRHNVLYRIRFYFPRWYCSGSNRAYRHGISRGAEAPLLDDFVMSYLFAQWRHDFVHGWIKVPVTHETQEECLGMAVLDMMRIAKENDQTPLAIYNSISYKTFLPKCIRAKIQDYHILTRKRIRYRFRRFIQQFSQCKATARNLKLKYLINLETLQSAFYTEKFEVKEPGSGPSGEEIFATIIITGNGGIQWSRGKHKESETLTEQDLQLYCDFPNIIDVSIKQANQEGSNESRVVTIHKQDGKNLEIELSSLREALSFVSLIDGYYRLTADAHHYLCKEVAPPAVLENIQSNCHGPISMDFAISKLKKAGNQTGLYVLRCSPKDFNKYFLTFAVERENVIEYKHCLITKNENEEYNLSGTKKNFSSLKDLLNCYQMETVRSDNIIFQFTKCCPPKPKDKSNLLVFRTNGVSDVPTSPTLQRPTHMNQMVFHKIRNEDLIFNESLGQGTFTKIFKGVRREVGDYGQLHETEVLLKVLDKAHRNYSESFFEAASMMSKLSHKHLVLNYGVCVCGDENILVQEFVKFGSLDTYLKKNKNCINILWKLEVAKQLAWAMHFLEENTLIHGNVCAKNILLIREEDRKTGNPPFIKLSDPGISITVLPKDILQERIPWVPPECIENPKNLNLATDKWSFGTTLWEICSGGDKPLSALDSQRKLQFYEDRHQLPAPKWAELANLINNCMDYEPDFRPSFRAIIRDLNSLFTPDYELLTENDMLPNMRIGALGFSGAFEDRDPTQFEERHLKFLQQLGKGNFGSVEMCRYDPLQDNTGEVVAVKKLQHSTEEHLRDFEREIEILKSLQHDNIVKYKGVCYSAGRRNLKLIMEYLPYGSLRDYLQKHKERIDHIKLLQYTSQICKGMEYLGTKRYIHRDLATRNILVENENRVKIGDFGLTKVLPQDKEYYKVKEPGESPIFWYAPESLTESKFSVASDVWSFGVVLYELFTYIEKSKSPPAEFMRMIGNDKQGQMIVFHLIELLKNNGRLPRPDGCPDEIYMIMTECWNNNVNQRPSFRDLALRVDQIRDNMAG
Sequence of baculovirus-expressed ALK (Q9UM73 19-1620): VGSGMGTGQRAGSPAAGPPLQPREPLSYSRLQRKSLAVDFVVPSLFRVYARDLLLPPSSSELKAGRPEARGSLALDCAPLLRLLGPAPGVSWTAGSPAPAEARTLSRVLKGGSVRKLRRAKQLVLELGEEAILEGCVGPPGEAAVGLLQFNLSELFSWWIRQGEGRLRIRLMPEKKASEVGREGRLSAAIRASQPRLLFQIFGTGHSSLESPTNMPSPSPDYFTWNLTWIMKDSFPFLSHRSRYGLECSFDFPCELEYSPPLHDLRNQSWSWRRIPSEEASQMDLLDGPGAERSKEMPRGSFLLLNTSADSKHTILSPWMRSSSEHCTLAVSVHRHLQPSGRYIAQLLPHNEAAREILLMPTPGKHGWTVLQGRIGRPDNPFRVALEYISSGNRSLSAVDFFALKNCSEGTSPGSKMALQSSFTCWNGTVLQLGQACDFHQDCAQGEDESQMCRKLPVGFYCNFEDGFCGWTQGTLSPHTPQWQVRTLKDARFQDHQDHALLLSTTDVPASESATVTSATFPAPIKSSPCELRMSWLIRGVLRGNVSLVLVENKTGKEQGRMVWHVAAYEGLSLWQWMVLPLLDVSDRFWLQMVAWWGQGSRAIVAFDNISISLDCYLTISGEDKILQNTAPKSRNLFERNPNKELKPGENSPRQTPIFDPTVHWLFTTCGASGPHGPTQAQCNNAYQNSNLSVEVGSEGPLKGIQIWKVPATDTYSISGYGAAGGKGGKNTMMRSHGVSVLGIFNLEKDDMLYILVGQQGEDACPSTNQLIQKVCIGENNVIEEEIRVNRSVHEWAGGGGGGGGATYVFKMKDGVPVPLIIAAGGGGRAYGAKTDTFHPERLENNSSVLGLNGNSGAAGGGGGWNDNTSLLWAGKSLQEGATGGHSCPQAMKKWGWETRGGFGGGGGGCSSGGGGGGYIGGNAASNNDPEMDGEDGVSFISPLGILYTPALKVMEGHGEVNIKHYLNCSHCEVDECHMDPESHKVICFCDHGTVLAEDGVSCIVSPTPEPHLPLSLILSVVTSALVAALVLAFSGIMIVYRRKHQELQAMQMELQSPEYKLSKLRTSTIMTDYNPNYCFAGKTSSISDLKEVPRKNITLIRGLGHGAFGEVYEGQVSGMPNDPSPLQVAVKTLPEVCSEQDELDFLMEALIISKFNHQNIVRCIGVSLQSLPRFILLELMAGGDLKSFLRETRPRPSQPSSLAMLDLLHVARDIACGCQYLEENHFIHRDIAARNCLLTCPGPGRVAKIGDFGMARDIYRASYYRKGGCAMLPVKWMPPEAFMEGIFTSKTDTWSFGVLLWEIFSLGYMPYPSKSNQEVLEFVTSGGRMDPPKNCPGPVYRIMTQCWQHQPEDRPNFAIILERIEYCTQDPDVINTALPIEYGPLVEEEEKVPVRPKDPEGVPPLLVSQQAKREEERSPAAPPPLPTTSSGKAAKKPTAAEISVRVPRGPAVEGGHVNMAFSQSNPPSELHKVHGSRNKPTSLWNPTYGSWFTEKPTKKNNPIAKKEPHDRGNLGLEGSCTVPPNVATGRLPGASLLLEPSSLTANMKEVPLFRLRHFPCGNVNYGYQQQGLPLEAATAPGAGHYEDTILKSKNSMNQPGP

For `CN1CCN(Cc2ccc(-c3nc4c(N[C@H]5[C@@H](C(N)=O)[C@@H]6C=C[C@H]5C6)c(Br)cnc4[nH]3)cc2)CC1` [Compound C], the melting point (in general, the temperature of the solid-liquid transition) was 208 to 209 °C. The IC50 in data set [1] was less than 100 nM. Besides, in data set [2], the IC50 is less than 100 nM.
On to `NC(=O)[C@@H]1[C@H](Nc2ccnc3[nH]c(-c4ccc(N5CCOCC5)cc4)nc23)[C@H]2C=C[C@@H]1C2` [Compound LXXXIX, (1S,2S,3R,4R)-3-[2-(4-Morpholin-4-yl-phenyl)-3H-imidazo[4,5-b]pyridin-7-ylamino]-bicyclo[2.2.1]hept-5-ene-2-carboxylic acid amide], for which the melting point lay within 240 to 244 °C. For the same compound, in data set [1], the IC50 fell in the range of 1000 to 10000 nM. In addition, the IC50 in data set [2] is more than 10000 nM.
On the same counts, the results for `NC(=O)[C@@H]1[C@H](Nc2ccnc3[nH]c(-c4ccc(CN5CCOCC5)cc4)nc23)[C@H]2C=C[C@@H]1C2` [Compound XC, (1S,2S,3R,4R)-3-[2-(4-Morpholin-4-ylmethyl-phenyl)-3H-imidazo[4,5-b]pyridin-7-ylamino]-bicyclo[2.2.1]hept-5-ene-2-carboxylic acid amide] are 240 to 244 °C, 1000 to 10000 nM and more than 10000 nM.
Compound `NC(=O)[C@@H]1[C@H](Nc2ccnc3[nH]c(-c4cccc(CN5CCOCC5)c4)nc23)[C@H]2C=C[C@@H]1C2` [Compound XCI, (1S,2S,3R,4R)-3-[2-(3-Morpholin-4-ylmethyl-phenyl)-3H-imidazo[4,5-b]pyridin-7-ylamino]-bicyclo[2.2.1]hept-5-ene-2-carboxylic acid amide] yielded a melting point of 240 to 244 °C. The IC50 in data set [1] lay in the range of 1000 to 10000 nM. The IC50 in data set [2] was more than 10000 nM.
For `CN(C)c1ccc(-c2nc3c(N[C@H]4[C@@H](C(N)=O)[C@@H]5C=C[C@H]4C5)ccnc3[nH]2)cc1` [Compound LXXXVI, (1S,2S,3R,4R)-3-[2-(4-Dimethylamino-phenyl)-3H-imidazo[4,5-b]pyridin-7-ylamino]-bicyclo[2.2.1]hept-5-ene-2-carboxylic acid amide], in that order: 245 to 251 °C, 1000 to 10000 nM and more than 10000 nM.
On the same counts, the results for `COc1cc(N2CCC(N3CCOCC3)CC2)ccc1-c1nc2c(N[C@H]3[C@@H](C(N)=O)[C@@H]4C=C[C@H]3C4)c(Br)cnc2[nH]1` [Compound XCVII, (1S,2S,3R,4R)-3-{6-Bromo-2-[2-methoxy-4-(4-morpholin-4-yl-piperidin-1-yl)-phenyl]-3H-imidazo[4,5-b]pyridin-7-ylamino}-bicyclo[2.2.1]hept-5-ene-2-carboxylic acid amide] are 185 to 195 °C, less than 100 nM and less than 100 nM.
In turn, `CC(C)(C)OC(=O)N1CCCC(c2nc3c(N[C@H]4[C@@H](C(N)=O)[C@@H]5C=C[C@H]4C5)c(Br)cnc3[nH]2)C1` (stereo partly drawn) [Compound LXXXII, 3-[6-Bromo-7-((1R,2R,3S,4S)-3-carbamoyl-bicyclo[2.2.1]hept-5-en-2-ylamino)-3H-imidazo[4,5-b]pyridin-2-yl]-piperidine-1-carboxylic acid tert-butyl] displayed a melting point of 172 to 177 °C. For the same compound, the IC50 in data set [1] fell in the range of 100 to 1000 nM. Also, the IC50 in data set [2] was in the range of 100 to 1000 nM.
In turn, `COc1cc(N(C)C)ccc1-c1nc2c(N[C@H]3[C@@H](C(N)=O)[C@@H]4C=C[C@H]3C4)ccnc2[nH]1` [Compound XCIII, (1S,2S,3R,4R)-3-[2-(4-Dimethylamino-2-methoxy-phenyl)-3H-imidazo[4,5-b]pyridin-7-ylamino]-bicyclo[2.2.1]hept-5-ene-2-carboxylic acid amide] came in with a melting point of 185 to 190 °C. The IC50 in data set [1] is more than 10000 nM. In addition, the IC50 in data set [2] is more than 10000 nM.
Regarding `Cc1ccc(-c2nc3c(N[C@H]4[C@@H](C(N)=O)[C@@H]5C=C[C@H]4C5)c(Br)cnc3[nH]2)o1` [Compound CX, (1S,2S,3R,4R)-3-[6-Bromo-2-(5-methyl-furan-2-yl)-3H-imidazo[4,5-b]pyridin-7-ylamino]-bicyclo[2.2.1]hept-5-ene-2-carboxylic acid amide], the melting point was 200 to 201 °C. Moreover, the IC50 in data set [1] is less than 100 nM. For the same compound, in data set [2], the IC50 lay in the range of 100 to 1000 nM.
On the same counts, the results for `COc1cc(N2CCC(N3CCN(C)CC3)CC2)ccc1-c1nc2c(N[C@H]3[C@@H](C(N)=O)[C@@H]4C=C[C@H]3C4)ccnc2[nH]1` [Compound XCIX, (1S,2S,3R,4R)-3-(2-{2-Methoxy-4-[4-(4-methyl-piperazin-1-yl)-piperidin-1-yl]-phenyl}-3H-imidazo[4,5-b]pyridin-7-ylamino)-bicyclo[2.2.1]hept-5-ene-2-carboxylic acid amide] are 185 to 195 °C, more than 10000 nM and 100 to 1000 nM.
On the same counts, the results for `COc1cc(N2CCC(N3CCN(C)CC3)CC2)ccc1-c1nc2c(N[C@H]3[C@@H](C(N)=O)[C@@H]4C=C[C@H]3C4)c(Br)cnc2[nH]1` [Compound XCVIII, (1S,2S,3R,4R)-3-(6-Bromo-2-{2-methoxy-4-[4-(4-methyl-piperazin-1-yl)-piperidin-1-yl]-phenyl}-3H-imidazo[4,5-b]pyridin-7-ylamino)-bicyclo[2.2.1]hept-5-ene-2-carboxylic acid amide] are 185 to 195 °C, less than 100 nM and less than 100 nM.
For `COc1cc(CN2CCN(C(C)=O)CC2)ccc1-c1nc2c(N[C@H]3[C@@H](C(N)=O)[C@@H]4C=C[C@H]3C4)c(Cl)cnc2[nH]1` [Compound LI], in that order: 109 to 113 °C, less than 100 nM and less than 100 nM.
As for `COc1cc(C2CCN(C)CC2)ccc1-c1nc2c(N[C@H]3[C@@H](C(N)=O)[C@@H]4C=C[C@H]3C4)c(Cl)cnc2[nH]1` [Compound CXVII, (1S,2S,3R,4R)-3-{6-Chloro-2-[2-methoxy-4-(1-methyl-piperidin-4-yl)-phenyl]-3H-imidazo[4,5-b]pyridin-7-ylamino}-bicyclo[2.2.1]hept-5-ene-2-carboxylic acid amide], the melting point lay in the range of 232 to 235 °C. The IC50 in data set [1] is less than 100 nM. For the same compound, the IC50 in data set [2] was less than 100 nM.
For the compound `Cn1cccc1-c1nc2c(N[C@H]3[C@@H](C(N)=O)[C@@H]4C=C[C@H]3C4)c(Br)cnc2[nH]1` [Compound CIX, (1S,2S,3R,4R)-3-[6-Bromo-2-(1-methyl-1H-pyrrol-2-yl)-3H-imidazo[4,5-b]pyridin-7-ylamino]-bicyclo[2.2.1]hept-5-ene-2-carboxylic acid amide], the melting point was 293 to 295 °C. In data set [1], the IC50 is less than 100 nM. The IC50 in data set [2] was less than 100 nM.
In turn, `COc1c(CN2CCOCC2)cccc1-c1nc2c(N[C@H]3[C@@H](C(N)=O)[C@@H]4C=C[C@H]3C4)c(Cl)cnc2[nH]1` [Compound LIII, (1S,2S,3R,4R)-3-[6-Chloro-2-(2-methoxy-3-morpholin-4-ylmethyl-phenyl)-3H-imidazo[4,5-b]pyridine-7-ylamino]-bicyclo[2.2.1]hept-5-ene-2-carboxylic acid amide] gave a melting point of 133 to 137 °C. Moreover, the IC50 in data set [1] was less than 100 nM. For the same compound, the IC50 in data set [2] was less than 100 nM.
The compound `C=CCc1ccc(-c2nc3c(N[C@H]4[C@@H](C(N)=O)[C@@H]5C=C[C@H]4C5)c(Cl)cnc3[nH]2)c(OC)c1` [Compound LVI, (1S,2S,3R,4R)-3-[2-(4-Allyl-2-methoxy-phenyl)-6-chloro-3H-imidazo[4,5-b]pyridine-7-ylamino]-bicyclo[2.2.1]hept-5-ene-2-carboxylic acid amide] returned a melting point of 123 to 126 °C. The IC50 in data set [1] was less than 100 nM. Moreover, the IC50 in data set [2] was less than 100 nM.
The compound `NC(=O)[C@@H]1[C@H](Nc2c(Br)cnc3[nH]c(-c4ccccc4-n4cccn4)nc23)[C@H]2C=C[C@@H]1C2` [Compound CIV, (1S,2S,3R,4R)-3-[6-Bromo-2-(2-pyrazol-1-yl-phenyl)-3H-imidazo[4,5-b]pyridin-7-ylamino]-bicyclo[2.2.1]hept-5-ene-2-carboxylic acid amide] had a melting point of 120 °C. Further, in data set [1], the IC50 lay within 100 to 1000 nM. In data set [2], the IC50 is 1000 to 10000 nM.
On the same counts, the results for `COc1cccc(OC)c1-c1nc2c(N[C@H]3[C@@H](C(N)=O)[C@@H]4C=C[C@H]3C4)c(Br)cnc2[nH]1` [Compound CVI, (1S,2S,3R,4R)-3-[6-Bromo-2-(2,6-dimethoxy-phenyl)-3H-imidazo[4,5-b]pyridin-7-ylamino]-bicyclo[2.2.1]hept-5-ene-2-carboxylic acid amide] are 194 to 197 °C, 1000 to 10000 nM and 1000 to 10000 nM.
In turn, `COc1cc(C2CCN(C[C@@H](C)O)CC2)ccc1-c1nc2c(N[C@H]3[C@@H](C(N)=O)[C@@H]4C=C[C@H]3C4)c(Cl)cnc2[nH]1` [Compound CXVI] displayed a melting point of more than 120 °C. Also, the IC50 in data set [1] is less than 100 nM. Moreover, the IC50 in data set [2] is less than 100 nM.
In turn, `NC(=O)[C@@H]1[C@H](Nc2c(Br)cnc3[nH]c(-c4ccoc4)nc23)[C@H]2C=C[C@@H]1C2` [Compound CVIII, (1S,2S,3R,4R)-3-(6-Bromo-2-furan-3-yl-3H-imidazo[4,5-b]pyridin-7-ylamino)-bicyclo[2.2.1]hept-5-ene-2-carboxylic acid amide] yielded a melting point of 231 to 232 °C. Besides, in data set [1], the IC50 is less than 100 nM. Besides, the IC50 in data set [2] fell in the range of 100 to 1000 nM.
For `NC(=O)[C@@H]1[C@H](Nc2c(Cl)cnc3[nH]c(-c4cccc(C(=O)NC(CO)C(=O)O)c4)nc23)[C@H]2C=C[C@@H]1C2` (stereo partly drawn) [Compound CCXXIX, 2-(3-(7-((1R,2R,3S,4S)-3-carbamoylbicyclo(2.2.1)hept-5-en-2-ylamino)-6-chloro-3H-imidazo[4,5-b]pyridine-2-yl)benzamido)-3-hydroxypropanoic acid], in that order: 243 °C, less than 100 nM and 1000 to 10000 nM.
